As usually defined, the MIC is the least concentration at which growth counts as inhibited.

The structures appear in SMILES notation. ≈ marks a conversion by molar mass, not a printed value. Some results are limits rather than exact numbers.

Tested on in one data set: not listed separately
Put plainly: Lipophilicity determination by HPLC (capacity factor k, distribution coefficients DpH). It counts as physicochemical. The conditions noted are these: MeOH 72 % / H2O 28 %, C18. An excerpt: An HPLC system Agilent 1200 equipped with a DAD detector (Agilent, Santa Clara, CA, USA) was used. A chromatographic column Symmetry® C18 5 μm, 4.6×250 mm, part No. WAT054275 (Waters Corp., Milford, MA, USA) was used. The HPLC separation process was monitored and evaluated with EZChrom Elite software ver. 3.3.2 [53] (Agilent). Isocratic elution by a mixture of MeOH p.a. (72 %) and H2O-HPLC Mili-Q grade (28 %) as a mobile phase was used for the determination of capacity factor k. Isocratic elution by a mixture of MeOH p.a. (72 %) and acetate-buffered saline (pH 7.4 and pH 6.5) (28 %) as a mobile phase was used for the determination of distribution coefficients expressed as D7.4 and D6.5. The total flow of the column was 1.0 mL/min, the injection volume was 20 μL, the column temperature was 40 °C, and the sample temperature was 10 °C. The detection wavelength of 210 nm was chosen. A KI methanolic solution was used for the determination of the dead times (tD). Retention times (tR) were measured in minutes. The capacity factors k were calculated according to the formula k = (tR−tD)/tD, where tR is the retention time of the solute, and tD is the dead time obtained using an unretained analyte. The distribution coefficients DpH were calculated according to the formula DpH = (tR−tD)/tD. Each experiment was repeated three times.
`O=C(Nc1cccc(Cl)c1)c1ccc2ccccc2c1O` [Compound 3] yielded a log k of 0.8556.
Still for that read-out and setting: with `O=C(Nc1c(Cl)cc(Cl)cc1Cl)c1ccc2ccccc2c1O` [Compound 12] the figure was 0.8398; with `O=C(Nc1cc(Cl)ccc1Cl)c1ccc2ccccc2c1O` [Compound 7], 0.6717; with `O=C(Nc1ccc(Cl)c(Cl)c1)c1ccc2ccccc2c1O` [Compound 9], 0.9304.
On the same count and under the same terms, the value for `O=C(Nc1ccc(Cl)cc1Cl)c1ccc2ccccc2c1O` [Compound 6] was 0.7387; that for `O=C(Nc1cc(Cl)c(Cl)cc1Cl)c1ccc2ccccc2c1O` [Compound 11] was 0.6894.
As for `O=C(Nc1ccccc1Cl)c1ccc2ccccc2c1O` [Compound 2], the log k worked out at 0.6900.

The same data set, now with this note: MeOH 72 % / acetate-buffered saline pH 6.5 28 %.
On to `O=C(Nc1cccc(Cl)c1)c1ccc2ccccc2c1O` [Compound 3], for which the “log D6.5” value came to 0.7362.
In the case of `O=C(Nc1c(Cl)cc(Cl)cc1Cl)c1ccc2ccccc2c1O` [Compound 12], the “log D6.5” value is 0.7254.
The same measure, in the same setting: the value for `O=C(Nc1cc(Cl)ccc1Cl)c1ccc2ccccc2c1O` [Compound 7] was 0.3949; that for `O=C(Nc1ccc(Cl)c(Cl)c1)c1ccc2ccccc2c1O` [Compound 9] was 0.9048.
Still for that read-out and setting: with `O=C(Nc1ccc(Cl)cc1Cl)c1ccc2ccccc2c1O` [Compound 6] the figure was 0.5168.
Same read-out and setting: the value for `O=C(Nc1cc(Cl)c(Cl)cc1Cl)c1ccc2ccccc2c1O` [Compound 11] was 0.5314; that for `O=C(Nc1ccccc1Cl)c1ccc2ccccc2c1O` [Compound 2] was 0.5828.

Staying with this data set, now noted: MeOH 72 % / acetate-buffered saline pH 7.4 28 %.
For the molecule `O=C(Nc1cccc(Cl)c1)c1ccc2ccccc2c1O` [Compound 3], the “log D7.4” value turned out to be 0.7227.
In the case of `O=C(Nc1c(Cl)cc(Cl)cc1Cl)c1ccc2ccccc2c1O` [Compound 12], the “log D7.4” value stood at 0.6825.
The same measure, in the same setting: the value for `O=C(Nc1cc(Cl)ccc1Cl)c1ccc2ccccc2c1O` [Compound 7] was 0.3938.
Regarding `O=C(Nc1ccc(Cl)c(Cl)c1)c1ccc2ccccc2c1O` [Compound 9], the “log D7.4” value came out at 0.8909.
Same read-out and setting: with `O=C(Nc1ccc(Cl)cc1Cl)c1ccc2ccccc2c1O` [Compound 6] the figure was 0.4680; with `O=C(Nc1cc(Cl)c(Cl)cc1Cl)c1ccc2ccccc2c1O` [Compound 11], 0.4864.
Still for that read-out and setting: with `O=C(Nc1ccccc1Cl)c1ccc2ccccc2c1O` [Compound 2] the figure was 0.5836.

For the next data set, the system named is S. aureus ATCC 29213. Put plainly: Antistaphylococcal screening, microtitration broth MIC. It counts as cell-based, Staphylococcus aureus. The conditions noted are these: Staphylococcus aureus, ATCC29213; S. aureus ATCC 29213, 24 h, 37 °C. As to the method: (§1) In vitro antistaphylococcal activity of the synthesized compounds was evaluated against three clinical isolates of methicillin-resistant S. aureus: clinical isolate of animal origin, MRSA 63718 (Department of Infectious Diseases and Microbiology, Faculty of Veterinary Medicine, University of Veterinary Sciences Brno, Czech Republic), carrying the mecA gene; and MRSA SA 630 and MRSA SA 3202 [54] (National Institute of Public Health, Prague, Czech Republic), both of human origin. […] All isolates were tested for the presence of the mecA gene encoding methicillin resistance. […] Vancomycin-susceptible methicillin-susceptible S. aureus (VS-MSSA) ATCC 29213, obtained from the American Type Culture Collection, was used as the reference and quality control strain. The minimum inhibitory concentrations (MICs) were evaluated by the microtitration broth method according to the CLSI [58, 59] with some modifications. The compounds were dissolved in DMSO (Sigma, St. Louis, MO, USA) to get a concentration […] and diluted in a microtitration plate in a medium Cation Adjusted Mueller-Hinton (CaMH, Oxoid, Basingstoke, UK) to reach the final concentration of 256-0.0625 μg/mL. The plate was inoculated by the tested microorganisms. The final concentration of bacterial cells was 10^5 for bacteria. […] A drug-free control and a sterility control were included. The plates were incubated for 24 h at 37 °C. […] The experiments were repeated three times.
With `O=C(Nc1cccc(Cl)c1)c1ccc2ccccc2c1O` [Compound 3], the MIC is > 859 µM.
The same measure, in the same setting: with `O=C(Nc1c(Cl)cc(Cl)cc1Cl)c1ccc2ccccc2c1O` [Compound 12] the figure was 698 µM (≈ 256 µg/mL).
`O=C(Nc1cc(Cl)ccc1Cl)c1ccc2ccccc2c1O` [Compound 7] registered an MIC of 770 µM (≈ 256 µg/mL).
In turn, `O=C(Nc1ccc(Cl)c(Cl)c1)c1ccc2ccccc2c1O` [Compound 9] came in with an MIC of 770 µM (≈ 256 µg/mL).
The same measure, in the same setting: the value for `O=C(Nc1ccc(Cl)cc1Cl)c1ccc2ccccc2c1O` [Compound 6] was 770 µM (≈ 256 µg/mL).
On to `O=C(Nc1cc(Cl)c(Cl)cc1Cl)c1ccc2ccccc2c1O` [Compound 11], for which 698 µM (≈ 256 µg/mL) was the least that counted as inhibitory (MIC).
For `O=C(Nc1ccccc1Cl)c1ccc2ccccc2c1O` [Compound 2], the MIC was > 859 µM.

Another data set relates to MRSA 63718. Described as above. It counts as cell-based, methicillin-resistant S. aureus. The conditions noted are these: Staphylococcus aureus; MRSA 63718, 24 h, 37 °C. How it is done: as §1
Consider `O=C(Nc1cccc(Cl)c1)c1ccc2ccccc2c1O` [Compound 3], for which the MIC is > 859 µM.
Regarding `O=C(Nc1c(Cl)cc(Cl)cc1Cl)c1ccc2ccccc2c1O` [Compound 12], the MIC was 698 µM (≈ 256 µg/mL).
In turn, `O=C(Nc1cc(Cl)ccc1Cl)c1ccc2ccccc2c1O` [Compound 7] registered an MIC of 770 µM (≈ 256 µg/mL).
`O=C(Nc1ccc(Cl)c(Cl)c1)c1ccc2ccccc2c1O` [Compound 9] came in with a minimal inhibitory concentration (MIC) of 770 µM (≈ 256 µg/mL).
Same read-out and setting: the value for `O=C(Nc1ccc(Cl)cc1Cl)c1ccc2ccccc2c1O` [Compound 6] was 770 µM (≈ 256 µg/mL); that for `O=C(Nc1cc(Cl)c(Cl)cc1Cl)c1ccc2ccccc2c1O` [Compound 11] was 698 µM (≈ 256 µg/mL).
For `O=C(Nc1ccccc1Cl)c1ccc2ccccc2c1O` [Compound 2], the MIC was > 859 µM.

The test system of the next data set is MRSA SA 3202. The description is as above. It counts as cell-based, methicillin-resistant S. aureus. The conditions noted are these: Staphylococcus aureus; MRSA SA 3202, 24 h, 37 °C. How it is done:
as §1
Consider `O=C(Nc1cccc(Cl)c1)c1ccc2ccccc2c1O` [Compound 3], for which the MIC stood at 107 µM (≈ 31.9 µg/mL).
Still for that read-out and setting: with `O=C(Nc1c(Cl)cc(Cl)cc1Cl)c1ccc2ccccc2c1O` [Compound 12] the figure was 698 µM (≈ 256 µg/mL).
The same measure, in the same setting: with `O=C(Nc1cc(Cl)ccc1Cl)c1ccc2ccccc2c1O` [Compound 7] the figure was 770 µM (≈ 256 µg/mL); with `O=C(Nc1ccc(Cl)c(Cl)c1)c1ccc2ccccc2c1O` [Compound 9], 385 µM (≈ 128 µg/mL); with `O=C(Nc1ccc(Cl)cc1Cl)c1ccc2ccccc2c1O` [Compound 6], 770 µM (≈ 256 µg/mL).
`O=C(Nc1cc(Cl)c(Cl)cc1Cl)c1ccc2ccccc2c1O` [Compound 11]: 698 µM (≈ 256 µg/mL) was the least that counted as inhibitory (MIC).
On to `O=C(Nc1ccccc1Cl)c1ccc2ccccc2c1O` [Compound 2], for which the minimum inhibitory concentration (MIC) was > 859 µM.

Another data set relates to MRSA SA 630. The data set is described as above. It counts as cell-based, methicillin-resistant S. aureus. The conditions noted are these: Staphylococcus aureus; MRSA SA 630, 24 h, 37 °C. As to the method:
as §1
On to `O=C(Nc1cccc(Cl)c1)c1ccc2ccccc2c1O` [Compound 3], for which inhibition of growth (MIC) required 429 µM (≈ 128 µg/mL).
Regarding `O=C(Nc1c(Cl)cc(Cl)cc1Cl)c1ccc2ccccc2c1O` [Compound 12], the MIC was found to be 698 µM (≈ 256 µg/mL).
`O=C(Nc1cc(Cl)ccc1Cl)c1ccc2ccccc2c1O` [Compound 7] came in with an MIC of 770 µM (≈ 256 µg/mL). This MIC and that of the molecule before are within 1.5-fold of each other.
Still for that read-out and setting: the value for `O=C(Nc1ccc(Cl)c(Cl)c1)c1ccc2ccccc2c1O` [Compound 9] was 96.3 µM (≈ 32 µg/mL).
`O=C(Nc1ccc(Cl)cc1Cl)c1ccc2ccccc2c1O` [Compound 6] came in with a minimum inhibitory concentration (MIC) of 770 µM (≈ 256 µg/mL). Against the preceding molecule, the MIC is about 8-fold higher.
The same measure, in the same setting: the value for `O=C(Nc1cc(Cl)c(Cl)cc1Cl)c1ccc2ccccc2c1O` [Compound 11] was 698 µM (≈ 256 µg/mL); that for `O=C(Nc1ccccc1Cl)c1ccc2ccccc2c1O` [Compound 2] was > 859 µM.

In another data set the test system is Human monocytic leukemia THP-1 cells.
Assay: not given
Details: method as in PMID 24075143. The conditions noted are these: tested up to 20 μM, ref [29], read-out: LC50 THP-1; cited from earlier work.
Turning to `O=C(Nc1cccc(Cl)c1)c1ccc2ccccc2c1O` [Compound 3], the CC50 is > 20 µM.

The values above are taken from publication PMC12043106, “Insight into antistaphylococcal effect of chlorinated 1-hydroxynaphthalene-2-carboxanilides” (ADMET & DMPK, 2025).
